We go through 86 sequences from the OligoGym collection.

Values joined by “and” are separate entries in the source; they are usually repeats but may differ in a detail not shown here. Equal values may be shown once. After the bases stand the sugars from the 5' end (letter, count) and the backbone: PS all phosphorothioate, else s phosphorothioate and o phosphodiester by linkage. Methylation of C is not given here. e = 2'-O-(2-methoxyethyl) (MOE); k = constrained ethyl (cEt); d = 2'-deoxy (DNA)

The data set has as its target IRF5. The conditions noted are these: ASO.

In turn, “TTATCTCCGTCCTGGC (sugars k3 d9 k3 e1, PS)” registered a target mRNA inhibition (KARPAS-229, 4 µM) of 0%. For the setting “KARPAS-229, 4 µM”, “AGGAAGTGAGTCTCAA (sugars kekdddddddddeekk, PS)” registered a target mRNA inhibition of 43%. Consider “GCATTCCATATACACA (sugars kkddddddddkekekk, PS)”, for which the target mRNA inhibition (KARPAS-229, 4 µM) was found to be 0%. Take “CCAATGCAACATCCAT (sugars k2 d9 e3 k2, PS)”: the target mRNA inhibition (KARPAS-229, 4 µM) turned out to be 0%. Consider “GTTCTTGGACTCTCAA (sugars kkdddddddddkekek, PS)”, for which the target mRNA inhibition (KARPAS-229, 4 µM) amounted to 31%. Take CCTTCTGCAGGGAGTC (sugars k3 d10 k3, PS): the target mRNA inhibition (KARPAS-229, 4 µM) came out at 0%. The sequence “CACTGACACAGGCGGA (sugars kkddddddddkekekk, PS)” showed a target mRNA inhibition (KARPAS-229, 4 µM) of 0%. For the setting “KARPAS-229, 4 µM”, TTTGCTCTAAACCATT (sugars k3 d10 k3, PS) came in with a target mRNA inhibition of 2%.

For the sequence TTATTTCTGCTCCAGG (sugars k3 d10 k3, PS), the target mRNA inhibition runs as follows: (KARPAS-229, 0.44444 µM) 51%; (KARPAS-229, 1.33333 µM) 66%; (KARPAS-229, 4 µM) 55% and 77%; (KARPAS-229, 12 µM) 84%.

Under “KARPAS-229, 4 µM”, “TTATTTCTGCTCCAGG (sugars kkdddddddddkekek, PS)” showed a target mRNA inhibition of 9%.

For the sequence CCAATGCAACATCCAT (sugars k3 d10 k3, PS), where the note is “KARPAS-229, 4 µM”, the target mRNA inhibition amounted to 0%. Still for that read-out and setting: as for “AGATGGTGTTATCTCC (sugars kkddddddddkekekk, PS)”, the figure is 0%; as for “CAGGTTCTTGGACTCT (sugars kkddddddddkekekk, PS)”, 0%.

Take “GCATTCCATATACACA (sugars kdddddddddkekeke, PS)”: the target mRNA inhibition (KARPAS-229, 4 µM) is 34%. On to ATTTTGTGACTGTATT (sugars k3 d10 k3, PS), for which the target mRNA inhibition (KARPAS-229, 4 µM) stood at 4%. On the same count and under the same terms, as for “CCTTCTGCAGGGAGTC (sugars k3 d9 k3 e1, PS)”, the figure is 0%; as for “CTTCTGCAGGGAGTCA (sugars kkkddddddddkekek, PS)”, 0%.

As to “CCATTCTATGCCTTTT (sugars kkddddddddddkeke, PS)”, the target mRNA inhibition is, setting by setting: (KARPAS-229, 0.44444 µM) 37%; (KARPAS-229, 1.33333 µM) 45%; (KARPAS-229, 4 µM) 61% and 62%; (KARPAS-229, 12 µM) 73%. Consider “CATCTCCACATCAGTC (sugars kdddddddddkekeke, PS)”, for which the target mRNA inhibition (KARPAS-229, 4 µM) stood at 32%. For “TGAGTCTCAAACCAGG (sugars k3 d9 k3 e1, PS)”, the target mRNA inhibition (KARPAS-229, 4 µM) came to 0%.

“AGGAGTGAGACGAGCA (sugars kkdddddddddkekek, PS)” registered a target mRNA inhibition (KARPAS-229, 4 µM) of 36%. The sequence “TGAGTCATGGGCTGAG (sugars kkkdddddddddkeke, PS)” had a target mRNA inhibition (KARPAS-229, 4 µM) of 17%. For the sequence “GTGAGTCTCAAACCAG (sugars k3 d9 k3 e1, PS)”, the target mRNA inhibition is 23% (KARPAS-229, 0.44444 µM); 39% (KARPAS-229, 1.33333 µM); 44% and 50% (KARPAS-229, 4 µM); 59% (KARPAS-229, 12 µM). With “GGTCTTGACCTCCCGC (sugars kddddddddddkekek, PS)”, the target mRNA inhibition (KARPAS-229, 4 µM) amounted to 37%. On to “CTGTCACATCTCCACA (sugars kkddddddddkekekk, PS)”, for which the target mRNA inhibition (KARPAS-229, 4 µM) worked out at 0%.

“GGAAGTGAGTCTCAAA (sugars kkkddddddddkekek, PS)” had a target mRNA inhibition (KARPAS-229, 4 µM) of 45%. Same read-out and setting: as for “ACTGACACAGGCGGAT (sugars kkddddddddkekekk, PS)”, the figure is 0%. As for GGGAGTCAGACCTACC (sugars k3 d10 k3, PS), the target mRNA inhibition (KARPAS-229, 4 µM) came out at 0%. Regarding “CTTGGTCTTGACCTCC (sugars kkdddddddddkekek, PS)”, for the setting “KARPAS-229, 4 µM”, the target mRNA inhibition stood at 3%.

“GGAGTGAGACGAGCAA (sugars kkkddddddddkekek, PS)” returned a target mRNA inhibition (KARPAS-229, 4 µM) of 5%. The sequence “GTCTGGCCCTTTTGGA (sugars k2 d8 e4 k2, PS)” had a target mRNA inhibition (KARPAS-229, 4 µM) of 0%. “CATTCCATATACACAC (sugars kkdddddddddkdkdk, PS)” returned a target mRNA inhibition (KARPAS-229, 4 µM) of 25%.

The sequence “AGGAGTGAGACGAGCA (sugars kkkdddddddddkeke, PS)” returned a target mRNA inhibition (KARPAS-229, 4 µM) of 42%.

“GTTCTTGGACTCTCAA (sugars k2 d8 e4 k2, PS)” gave a target mRNA inhibition (KARPAS-229, 4 µM) of 8%. For “TGTCTAGTGTCATGGA (sugars kkdddddddddkdkdk, PS)”, the target mRNA inhibition (KARPAS-229, 4 µM) was 40%. As to “CTGACACAGGCGGATG (sugars kdddddddddkekeke, PS)”, the target mRNA inhibition (KARPAS-229, 4 µM) amounted to 0%. In turn, “GGTGTATTTCCCTGTC (sugars kdddddddddkekeke, PS)” yielded a target mRNA inhibition (KARPAS-229, 4 µM) of 0%.

Regarding “AGATGGTGTTATCTCC (sugars kddddddddddkekek, PS)”, the target mRNA inhibition (KARPAS-229, 4 µM) came out at 0%. The same measure, in the same setting: the value for “ATGAGTCATGGGCTGA (sugars kddddddddddkekek, PS)” was 0%; that for “TCCAATTTTGCATTCC (sugars kkkddddddddkdkdk, PS)” was 32%; that for GTGAGTCTCAAACCAG (sugars k3 d10 k3, PS) was 9%. For ATTTGCCTTCTGCAGG (sugars k3 d10 k3, PS), the target mRNA inhibition (KARPAS-229, 4 µM) came to 0%. Consider “AAGGGCACAGCGCAGG (sugars kkddddddddddkeke, PS)”, for which, where the note is “KARPAS-229, 4 µM”, the target mRNA inhibition is 0%. Sequence “GTTATCTCCGTCCTGG (sugars kkdddddddddkekek, PS)” had a target mRNA inhibition (KARPAS-229, 4 µM) of 0%. For “CTTGGTCTTGACCTCC (sugars k3 d9 k3 e1, PS)”, the target mRNA inhibition (KARPAS-229, 4 µM) amounted to 6%. Regarding AACCATTCTATGCCTT (sugars k3 d10 k3, PS), the target mRNA inhibition (KARPAS-229, 4 µM) amounted to 33%. “CTTCTGCAGGGAGTCA (sugars k3 d9 k3 e1, PS)”: the target mRNA inhibition (KARPAS-229, 4 µM) turned out to be 0%. Take “GTGAGTCTCAAACCAG (sugars kkdddddddddkekek, PS)”: the target mRNA inhibition (KARPAS-229, 4 µM) is 0%. Turning to “ACCACTGTGTACCCCA (sugars kkddddddddddkeke, PS)”, the target mRNA inhibition is, setting by setting: (KARPAS-229, 0.44444 µM) 26%; (KARPAS-229, 1.33333 µM) 38%; (KARPAS-229, 4 µM) 66% and 56%; (KARPAS-229, 12 µM) 70%.

“ATTTCTGCTCCAGGTT (sugars kkddddddddkekekk, PS)” returned a target mRNA inhibition (KARPAS-229, 4 µM) of 6%. For the sequence “GCTTGGTCTTGACCTC (sugars kkkddddddddkdkdk, PS)”, the target mRNA inhibition (KARPAS-229, 4 µM) turned out to be 30%. Still for that read-out and setting: as for GCTGTCACATCTCCAC (sugars k3 d10 k3, PS), the figure is 33%; as for “ACATCTCCACATCAGT (sugars kkddddddddddkeke, PS)”, 36%. “ATTTCTGCTCCAGGTT (sugars kdddddddddkekeke, PS)” returned a target mRNA inhibition (KARPAS-229, 4 µM) of 13%. For the sequence “CTTGGTCTTGACCTCC (sugars kkddddddddddkeke, PS)”, the target mRNA inhibition (KARPAS-229, 4 µM) is 39%. For the sequence “CTTGGTCTTGACCTCC (sugars kkkddddddddkekek, PS)”, the target mRNA inhibition (KARPAS-229, 4 µM) was found to be 1%. AGACGAGCAAAGGGTG (sugars k3 d10 k3, PS) gave a target mRNA inhibition (KARPAS-229, 4 µM) of 35%. Consider “GTCTTGACCTCCCGCT (sugars k2 d8 e4 k2, PS)”, for which, where the note is “KARPAS-229, 4 µM”, the target mRNA inhibition is 34%. As to “AAGGGCACAGCGCAGG (sugars kkddddddddkekekk, PS)”, under “KARPAS-229, 4 µM”, the target mRNA inhibition was determined as 0%. For the setting “KARPAS-229, 4 µM”, “CTTGGTCTTGACCTCC (sugars kkddddddddkekekk, PS)” came in with a target mRNA inhibition of 0%. Same read-out and setting: as for “TCCAATTTTGCATTCC (sugars kkkdddddddddkeke, PS)”, the figure is 14%. As for “TGCACTGACACAGGCG (sugars k3 d9 k3 e1, PS)”, under “KARPAS-229, 4 µM”, the target mRNA inhibition stood at 0%. In the case of “GTCTGGCCCTTTTGGA (sugars kkdddddddddkekek, PS)”, the target mRNA inhibition (KARPAS-229, 4 µM) is 0%. In turn, “TGCACTGACACAGGCG (sugars kkdddddddddkdkdk, PS)” came in with a target mRNA inhibition (KARPAS-229, 4 µM) of 0%. The sequence CACTTGATTCCAATTT (sugars k3 d10 k3, PS) registered a target mRNA inhibition (KARPAS-229, 4 µM) of 36%. As for “GAGTGAGACGAGCAAA (sugars kdddddddddkekeke, PS)”, the target mRNA inhibition (KARPAS-229, 4 µM) is 6%. In turn, ACATCCATCAATGAGG (sugars k3 d10 k3, PS) registered a target mRNA inhibition (KARPAS-229, 4 µM) of 0%. Sequence “TTATTTCTGCTCCAGG (sugars kddddddddddkekek, PS)” had a target mRNA inhibition (KARPAS-229, 4 µM) of 0%. The same measure, in the same setting: the value for TTCTGCAGGGAGTCAG (sugars k3 d10 k3, PS) was 0%; that for TCTGCAGGGAGTCAGA (sugars k3 d10 k3, PS) was 0%. Regarding GTGACTGTATTACCTA (sugars k3 d10 k3, PS), the target mRNA inhibition is 9% (KARPAS-229, 0.44444 µM); 39% (KARPAS-229, 1.33333 µM); 62% and 70% (KARPAS-229, 4 µM); 81% (KARPAS-229, 12 µM). As for “GTCTTGACCTCCCGCT (sugars kkddddddddkekekk, PS)”, the target mRNA inhibition (KARPAS-229, 4 µM) stood at 26%. Turning to “GATGGTGTTATCTCCG (sugars kkddddddddddkeke, PS)”, the target mRNA inhibition (KARPAS-229, 4 µM) stood at 0%. On to CCCAATGCAACATCCA (sugars k3 d10 k3, PS), for which, where the note is “KARPAS-229, 4 µM”, the target mRNA inhibition worked out at 12%. “GTTATCTCCGTTCCTGG (sugars kkkdddddddddkeked, PS)” yielded a target mRNA inhibition (KARPAS-229, 4 µM) of 0%. Under “KARPAS-229, 4 µM”, “ACCACTGTGTACCCCA (sugars kdddddddddkekeke, PS)” had a target mRNA inhibition of 40%. In turn, CTTGATTCCAATTTTG (sugars k3 d10 k3, PS) displayed a target mRNA inhibition (KARPAS-229, 4 µM) of 20%. In the case of “ATCACCACTGTGTACC (sugars k3 d9 k3 e1, PS)”, the target mRNA inhibition (KARPAS-229, 4 µM) amounted to 19%.

“GGTCTGGCCCTTTTGG (sugars kdddddddddkekeke, PS)”: where the note is “KARPAS-229, 4 µM”, the target mRNA inhibition amounted to 0%.

In turn, “TCACCACTGTGTACCC (sugars kkkddddddddkekek, PS)” came in with a target mRNA inhibition (KARPAS-229, 4 µM) of 0%.

As for “CTTGGTCTTGACCTCC (sugars kkkddddddddkdkdk, PS)”, the target mRNA inhibition (KARPAS-229, 4 µM) was 19%. On the same count and under the same terms, as for “CCATTCTATGCCTTTT (sugars kkdddddddddkdkdk, PS)”, the figure is 46%. Sequence “TCTGGCCCTTTTGGAA (sugars kkddddddddkekekk, PS)” returned a target mRNA inhibition (KARPAS-229, 4 µM) of 0%. For the sequence TGAGTCTCAAACCAGG (sugars k3 d10 k3, PS), the target mRNA inhibition (KARPAS-229, 4 µM) is 16%. Under “KARPAS-229, 4 µM”, AAAGGGTGAGTAGGAC (sugars k3 d10 k3, PS) yielded a target mRNA inhibition of 24%. The sequence “GGTTCTTGGACTCTCA (sugars kkkddddddddkdkdk, PS)” showed a target mRNA inhibition (KARPAS-229, 4 µM) of 28%.
